Data taken from paper PMC8989888, “Development of optimized drug-like small molecule inhibitors of the SARS-CoV-2 3CL protease for treatment of COVID-19” (Nature Communications, 2022).
Read-outs that look alike come from different tables or passages of the source.

Molecular target: SARS-CoV-2 3CL protease (Severe acute respiratory syndrome coronavirus 2, UniProt P0DTD1)
Assay type: biochemical
Set-up: Avg: unit not given here
Conditions: for Inhibition at 10 µM: 10 µM compound; for Inhibition at 100 µM: 100 µM compound; for IC50 / LogIC50: Figure S1 and S2
[1] = log of IC50 (µM), dose-response curve fit
[2] = Conc 10 µM, average response of dose-response curve
[3] = Conc 15 µM, average response of dose-response curve
[4] = Conc 20 µM, average response of dose-response curve
[5] = Conc 50 µM, average response of dose-response curve
[6] = Conc 100 µM, average response of dose-response curve
[7] = Conc 200 µM, average response of dose-response curve
[8] = dose-response retest of fragment hits

Row | Compound | Inhibition at 10 µM | Inhibition at 100 µM | Avg (Conc 10 µM) | Avg (Conc 15 µM) | Avg (Conc 20 µM) | Avg (Conc 50 µM) | Avg (Conc 100 µM) | Avg (Conc 200 µM) | IC50 (dose-response curve fit) | LogIC50 [1] | Avg [2] | Avg [3] | Avg [4] | Avg [5] | Avg [6] | Avg [7] | IC50 [8] | LogIC50 (log of IC50 in µM)
1 | COC(C)(C)CNC(=O)c1cccnc1S [Z1274680193] | 27% | 80% | 27.3 | 54.6 | 67.5 | 90.4 | 80.1 | 60.9 | 14.2 µM | 1.153 | – | – | – | – | – | – | – | –
2 | O=C(NCCC(O)c1ccccc1)c1cccnc1S (stereo not drawn) [Z1275438373] | 13% | 100% | 12.5 | 9.1 | 42.4 | 99.1 | 101.3 | 95.1 | 20.2 µM | 1.3058 | – | – | – | – | – | – | – | –
3 | O=C(NCC(CO)c1ccccc1)c1cccnc1S (stereo not drawn) [Z1346056045] | 2% | 96% | 2.4 | 13.5 | 19.9 | 74.2 | 95.6 | 87.7 | 32.4 µM | 1.51 | – | – | – | – | – | – | – | –
4 | CCNC(=O)N1CCC(NC(=O)c2cccnc2S)C1 (stereo not drawn) [Z1421663935] | 4% | 100% | 3.7 | 20 | 18.3 | 97.3 | 103.3 | 100 | 28 µM | 1.447 | – | – | – | – | – | – | – | –
5 | CCC(=O)N1CCC(NC(=O)c2cccnc2S)C1 (stereo not drawn) [Z1429050837] | 24% | 100% | 24.1 | 26.1 | 20.9 | 87.9 | 102.1 | 100.5 | 42.3 µM | 1.626 | – | – | – | – | – | – | – | –
6 | Cc1nc(CCNC(=O)c2cccnc2S)sc1C [Z1432661577] | 10% | 100% | 10.2 | 5.7 | 26.8 | 103 | 104.1 | 108.4 | 20.8 µM | 1.319 | – | – | – | – | – | – | – | –
7 | COC1(CNC(=O)c2cccnc2S)CCOCC1 [Z1483040147] | 0% | 90% | -6.5 | -1.8 | 13.4 | 61.8 | 90 | 90.2 | 39.7 µM | 1.599 | – | – | – | – | – | – | – | –
8 | Cn1cc(CNC(=O)c2cccnc2S)c(C(F)(F)F)n1 [Z1488388701] | 2% | 100% | 2.1 | 19.8 | 26.9 | 96.9 | 107.8 | 105 | 25.7 µM | 1.41 | – | – | – | – | – | – | – | –
9 | CC(C)Cc1ncc(CNC(=O)c2cccnc2S)s1 [Z1494348106] | 4% | 100% | 3.5 | 37.1 | 49.8 | 100.8 | 102.9 | 93.1 | 18.8 µM | 1.275 | – | – | – | – | – | – | – | –
10 | O=C(NCc1ncccc1F)c1cccnc1S [Z1499268500] | 17% | 100% | 17.2 | 49.3 | 94.7 | 100.1 | 91.4 | 94.2 | 15 µM | 1.1775 | – | – | – | – | – | – | – | –
11 | CC(C)OC1CCC(NC(=O)c2cccnc2S)CC1 (stereo not drawn) [Z1500153099] | 2% | 96% | 2.2 | 13 | 32.4 | 52.9 | 96.3 | 103 | 37.9 µM | 1.579 | – | – | – | – | – | – | – | –
12 | O=C(NCc1ccc(F)c(CO)c1)c1cccnc1S [Z1501229042] | 27% | 100% | 26.5 | 32.3 | 50.8 | 101.4 | 101.9 | 89.2 | 19.9 µM | 1.299 | – | – | – | – | – | – | – | –
13 | O=C(NCC1(O)CCc2ccccc21)c1cccnc1S (stereo not drawn) [Z1501256406] | 55% | 82% | 55.2 | 87.1 | 101.3 | 96.8 | 82.6 | 65.5 | – | – | – | – | – | – | – | – | – | –
14 | O=C(NCCC1=CCOCC1)c1cccnc1S [Z1510476385] | 0% | 99% | – | – | – | – | – | – | – | – | 0.1 | 16 | 18.7 | 80.4 | 98.6 | 100.4 | 31.3 µM | 1.496
15 | Cc1cnccc1CCNC(=O)c1cccnc1S [Z1515958452] | 4% | 100% | – | – | – | – | – | – | – | – | 4 | -6.1 | 25.7 | 93.3 | 101.4 | 97.8 | 20.6 µM | 1.315
16 | O=C(CCl)N1CCN(c2ccccc2[N+](=O)[O-])CC1 [Z1562119284] | 20% | 90% | – | – | – | – | – | – | – | – | 20 | 20 | 26 | 56.4 | 90 | 97.6 | 44.6 µM | 1.6496
17 | O=C(CCl)N1CCOC(c2ccc(F)cc2)C1 (stereo not drawn) [Z1562122812] | 31% | 100% | – | – | – | – | – | – | – | – | 31.1 | 36.9 | 59.9 | 101.2 | 96.2 | 101.8 | 18.4 µM | 1.2639
18 | N#C/C=C/S(=O)(=O)c1ccc(Cl)cc1 [Z1649581806] | 18% | 95% | – | – | – | – | – | – | – | – | 17.8 | 30.7 | 66.2 | 85.5 | 95.1 | 100.5 | 17.8 µM | 1.251
19 | O=C(CCl)c1ccc2c(c1)CCN(C(=O)C(F)(F)F)C2 [Z1723943157] | 42% | 81% | – | – | – | – | – | – | – | – | 42.1 | 47.7 | 60.7 | 76.3 | 81 | 92.3 | 14.4 µM | 1.159
20 | Nc1cccnc1S [Z1741977862] | 21% | 100% | – | – | – | – | – | – | – | – | 21.4 | 52.3 | 66.1 | 102.9 | 106.8 | 99.2 | 15.2 µM | 1.183
